Data published in PubChem BioAssay AID624134 (Broad Institute, 2012).
Values joined by “and” are separate entries in the source; they are usually repeats but may differ in a detail not shown here. Identical values can stand only once. Results filed as inconclusive are left out. Active and inactive are the calls of the source.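 How the source made its calls: active means signal drop with fitted half-maximal concentration no higher than twice the top valid tested concentration; inconclusive means flat curve with 30 to 70% signal loss, or poor fit; inactive means the rest, including signal rises and flat curves within 30%.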

system: HepG2 viability, CellTiter-Glo ATP luminescence, 48 h; test: loss of viability in HepG2 cells – cell-based, CellTiter-Glo, cherry-picked, cytotoxicity control for Shn3 inhibitor project, dose response (AID 624134)

| Compound | AC50 |
| --- | --- |
| CC(=O)OCC12CC(OC(=O)CC(C)C)C(C)=CC1OC1C(O)C(OC(C)=O)C2(C)C12CO2 (stereo not given) | > 70 µM (inactive) |
| CC(=O)OC1C(=O)OCC23CCC4(C)OC4C2OC2CC(OC(=O)C=CC=CC(=O)OCCC1C)C3(C)C21CO1 (stereo not given) | > 70 µM (inactive) |
| CC(=O)OC[C@]12CCC(C)=C[C@H]1O[C@@H]1[C@H](O)[C@@H](OC(C)=O)[C@@]2(C)[C@]12CO2 | > 70 µM (inactive) |
| CCN1CCN(Cc2ccc(NC(=O)c3cc(NC(=O)c4cc5cccc(OC)c5o4)cc(OC)c3)cc2C(F)(F)F)CC1 | 18.9 µM and 9.13 µM |
| C[C@H]1[C@@H](OS(=O)(=O)O)C[C@@H]2C[C@H]([C@@H](O)c3cc(=O)[nH]c(=O)[nH]3)NC3=NC[C@H]1N32 | 8.33 µM |
